For orientation: IC50 means the concentration that gives 50% inhibition. The Ki is a dissociation constant, usually derived from enzyme kinetics or from competition with a known ligand.

The target in test [1] is EML4-ALK wt v1 in NIH-3T3 cells (Homo sapiens, UniProt Q9UM73).
In test [2] the target is T1, human recombinant wild-type ALK kinase domain (amino acids 1093-1411) (Homo sapiens, UniProt Q9UM73).
T1 construct: ALK kinase domain (amino acids 1093-1411); made in house
Description: ALK enzyme assay 2 (microfluidic mobility shift assay).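 Also: kinase reaction run 1 h at room temperature, conversion quantified by electrophoretic separation of fluorescent peptide substrate from phosphorylated product, about 15-20% turnover without inhibitor.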 The class given is biochemical.
Description: The reactions were incubated for 1 h at room temperature, stopped by the addition of 0.1 M EDTA, pH 8, and the extent of reactions (˜15-20% conversion with no inhibitor) was determined after electrophoretic separation of the fluorescently labeled peptide substrate and phosphorylated product on an LabChip EZ Reader II (Caliper Life Sciences, Hopkinton, Mass.).

SMILES strings stand for the structures. Bounds are passed on as bounds.

T1 sequence (Q9UM73 1093-1411): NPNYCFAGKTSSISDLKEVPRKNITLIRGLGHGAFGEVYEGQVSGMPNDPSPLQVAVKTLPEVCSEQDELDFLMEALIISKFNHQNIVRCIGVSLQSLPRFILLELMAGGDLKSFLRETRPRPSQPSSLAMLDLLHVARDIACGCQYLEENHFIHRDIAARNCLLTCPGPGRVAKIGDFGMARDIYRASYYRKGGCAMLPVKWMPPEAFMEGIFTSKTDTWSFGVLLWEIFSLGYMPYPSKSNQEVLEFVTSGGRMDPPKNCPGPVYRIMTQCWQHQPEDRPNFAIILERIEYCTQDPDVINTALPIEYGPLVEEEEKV
Chain of EML4-ALK wt v1 in NIH-3T3 cells (Q9UM73 with tags, fused parts or gaps): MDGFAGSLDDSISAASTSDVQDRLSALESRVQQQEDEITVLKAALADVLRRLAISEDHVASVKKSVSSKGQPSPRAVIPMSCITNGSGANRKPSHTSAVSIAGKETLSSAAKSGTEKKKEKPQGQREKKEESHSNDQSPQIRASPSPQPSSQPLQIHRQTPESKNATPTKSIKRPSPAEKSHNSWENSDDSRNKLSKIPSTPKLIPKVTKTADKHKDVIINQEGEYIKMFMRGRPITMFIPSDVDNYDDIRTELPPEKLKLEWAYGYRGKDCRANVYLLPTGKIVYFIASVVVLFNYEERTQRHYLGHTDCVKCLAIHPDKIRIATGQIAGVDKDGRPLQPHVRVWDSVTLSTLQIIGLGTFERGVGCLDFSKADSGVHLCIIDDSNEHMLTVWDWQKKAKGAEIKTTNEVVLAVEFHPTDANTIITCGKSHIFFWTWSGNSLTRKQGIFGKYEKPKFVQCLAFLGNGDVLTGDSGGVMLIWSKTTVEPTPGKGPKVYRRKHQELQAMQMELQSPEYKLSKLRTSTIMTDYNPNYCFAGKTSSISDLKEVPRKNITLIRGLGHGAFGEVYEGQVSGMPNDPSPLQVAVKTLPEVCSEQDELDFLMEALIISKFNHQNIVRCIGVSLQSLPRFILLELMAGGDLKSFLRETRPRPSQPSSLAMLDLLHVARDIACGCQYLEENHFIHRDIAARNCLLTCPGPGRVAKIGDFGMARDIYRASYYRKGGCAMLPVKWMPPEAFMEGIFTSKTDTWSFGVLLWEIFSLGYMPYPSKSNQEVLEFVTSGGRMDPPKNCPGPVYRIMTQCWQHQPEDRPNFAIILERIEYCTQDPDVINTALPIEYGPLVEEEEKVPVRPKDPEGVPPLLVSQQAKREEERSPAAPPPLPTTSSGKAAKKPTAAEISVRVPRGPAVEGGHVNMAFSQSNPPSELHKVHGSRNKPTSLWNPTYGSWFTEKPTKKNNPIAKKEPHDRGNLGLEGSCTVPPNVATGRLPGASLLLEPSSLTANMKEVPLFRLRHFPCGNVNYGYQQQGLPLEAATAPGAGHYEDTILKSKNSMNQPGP

Consider `COc1nc(CO)ccc1-c1cnc(N)c(O[C@H](C)c2cc(F)ccc2-n2nccn2)c1` [Example 93, (6′-amino-5′-{(1R)-1-[5-fluoro-2-(2H-1,2,3-triazol-2-yl)phenyl]ethoxy}-2-methoxy-3,3′-bipyridin-6-yl)methanol], for which the IC50 in test [1] worked out at 12.7 nM. Also, in test [2], the Ki came to 0.43 nM.

For `CC(O)c1ncc(-c2cnc(N)c(O[C@H](C)c3cc(F)ccc3-n3nccn3)c2)s1` (stereo partly drawn) [Example 94, 1-[5-(6-amino-5-{(1R)-1-[5-fluoro-2-(2H-1,2,3-triazol-2-yl)phenyl]ethoxy}pyridin-3-yl)-1,3-thiazol-2-yl]ethanol], the IC50 in test [1] was 22.1 nM. Further, the Ki in test [2] was less than 0.49 nM.

For `Cc1nn(CS(C)(=O)=O)c(C)c1-c1cnc(N)c(O[C@H](C)c2cc(F)ccc2-n2nccn2)c1` [Example 95, 5-{3,5-dimethyl-1-[(methylsulfonyl)methyl]-1H-pyrazol-4-yl}-3-{(1R)-1-[5-fluoro-2-(2H-1,2,3-triazol-2-yl)phenyl]ethoxy}pyridin-2-amine], in test [1], the IC50 amounted to 13.8 nM. Also, the Ki in test [2] stood at 0.2 nM.

Turning to `Cc1nc(C(C)O)sc1-c1cnc(N)c(O[C@H](C)c2cc(F)ccc2-n2nccn2)c1` (stereo partly drawn) [Example 96, 1-[5-(6-amino-5-{(1R)-1-[5-fluoro-2-(2H-1,2,3-triazol-2-yl)phenyl]ethoxy}pyridin-3-yl)-4-methyl-1,3-thiazol-2-yl]ethanol], the IC50 in test [1] came to 17.1 nM. Besides, the Ki in test [2] was less than 0.2 nM.

`C[C@@H](Oc1cc(-c2cnc(CO)n2C)cnc1N)c1cc(F)ccc1-n1nccn1` [Example 97, [5-(6-amino-5-{(1R)-1-[5-fluoro-2-(2H-1,2,3-triazol-2-yl)phenyl]ethoxy}pyridin-3-yl)-1-methyl-1H-imidazol-2-yl]methanol]: the IC50 in test [1] is 41.3 nM. Further, in test [2], the Ki came to 0.327 nM.

In test [1], `C[C@@H](Oc1cc(-c2cnn([C@H]3CCCNC3)c2)cnc1N)c1cc(F)ccc1-n1nccn1` [Example 98, 3-{(1R)-1-[5-fluoro-2-(2H-1,2,3-triazol-2-yl)phenyl]ethoxy}-5-[1-(piperidin-3-yl)-1H-pyrazol-4-yl]pyridin-2-amine] gave an IC50 of 10.8 nM. In addition, the inhibition constant Ki in test [2] was less than 0.2 nM.

`C[C@@H](Oc1cc(-c2ccc3c(c2)CCS3(=O)=O)cnc1N)c1cc(F)ccc1-n1nccn1` [Example 99, 5-(1,1-dioxido-2,3-dihydro-1-benzothiophen-5-yl)-3-{(1R)-1-[5-fluoro-2-(2H-1,2,3-triazol-2-yl)phenyl]ethoxy}pyridin-2-amine] yielded an IC50 in test [1] of 13.2 nM. In test [2], the Ki stood at 1.1 nM.

On to `CNCc1ccc(-c2cnc(N)c(O[C@H](C)c3cc(F)ccc3-n3nccn3)c2)c(OC)n1` [Example 100, 5-{(1R)-1-[5-fluoro-2-(2H-1,2,3-triazol-2-yl)phenyl]ethoxy}-2′-methoxy-6′-[(methylamino)methyl]-3,3′-bipyridin-6-amine], for which, in test [1], the IC50 amounted to 12.2 nM. Besides, in test [2], the inhibition constant Ki is less than 0.2 nM.

`COc1ccc(S(C)(=O)=O)cc1-c1cnc(N)c(O[C@H](C)c2cc(F)ccc2-n2nccn2)c1` [Example 101, 3-{(1R)-1-[5-fluoro-2-(2H-1,2,3-triazol-2-yl)phenyl]ethoxy}-5-[2-methoxy-5-(methylsulfonyl)phenyl] pyridin-2-amine] showed an IC50 in test [1] of 3.21 nM. Besides, the inhibition constant Ki in test [2] was less than 0.2 nM.

Take `COc1ccc(F)cc1C(C)Oc1nc(-c2cc(S(C)(=O)=O)cnc2OC)cnc1N` (centres unmarked) [Example 102, 3-[1-(5-fluoro-2-methoxyphenyl)ethoxy]-5-[2-methoxy-5-(methylsulfonyl)pyridin-3-yl]pyrazin-2-amine]: the IC50 in test [1] stood at 89.3 nM. The inhibition constant (Ki) in test [2] was 1.21 nM.

For `Cc1nc(C(C)(C)O)sc1-c1cnc(N)c(O[C@H](C)c2cc(F)ccc2-n2nccn2)n1` [Example 103, 2-[5-(5-amino-6-{(1R)-1-[5-fluoro-2-(2H-1,2,3-triazol-2-yl)phenyl]ethoxy}pyrazin-2-yl)-4-methyl-1,3-thiazol-2-yl]propan-2-ol], the IC50 in test [1] worked out at 15 nM. Moreover, the Ki in test [2] was less than 0.2 nM.

On to `C[C@@H](Oc1cc(-c2csc(CO)n2)cnc1N)c1cc(F)ccc1-n1nccn1` [Example 105, [4-(6-amino-5-{(1R)-1-[5-fluoro-2-(2H-1,2,3-triazol-2-yl)phenyl]ethoxy}pyridin-3-yl)-1,3-thiazol-2-yl]methanol], for which half-maximal inhibition in test [1] (IC50) was put at 166 nM. Besides, the Ki in test [2] stood at 4.1 nM.

In test [1], `C[C@@H](Oc1cc(-c2cnc(CO)s2)cnc1N)c1cc(F)ccc1-n1nccn1` [Example 106, [5-(6-amino-5-{(1R)-1-[5-fluoro-2-(2H-1,2,3-triazol-2-yl)phenyl]ethoxy}pyridin-3-yl)-1,3-thiazol-2-yl]methanol] registered an IC50 of 21.5 nM. For the same compound, the Ki in test [2] was found to be 0.68 nM.

`Cc1nc(CO)sc1-c1cnc(N)c(O[C@H](C)c2cc(F)ccc2-n2nccn2)c1` [Example 107, [5-(6-amino-5-{(1R)-1-[5-fluoro-2-(2H-1,2,3-triazol-2-yl)phenyl]ethoxy}pyridin-3-yl)-4-methyl-1,3-thiazol-2-yl]methanol] gave an IC50 in test [1] of 9.92 nM. Moreover, the inhibition constant Ki in test [2] was less than 0.2 nM.

As to `CCc1nc(CO)sc1-c1cnc(N)c(O[C@H](C)c2cc(F)ccc2-n2nccn2)c1` [Example 108, [5-(6-amino-5-{(1R)-1-[5-fluoro-2-(2H-1,2,3-triazol-2-yl)phenyl]ethoxy}pyridin-3-yl)-4-ethyl-1,3-thiazol-2-yl]methanol], in test [1], half-maximal inhibition (IC50) was put at 9.38 nM. For the same compound, the Ki in test [2] is less than 0.2 nM.

In the case of `C[C@@H](Oc1cc(-c2cnc(CS(C)(=O)=O)s2)cnc1N)c1cc(F)ccc1-n1nccn1` [Example 109, 3-{(1R)-1-[5-fluoro-2-(2H-1,2,3-triazol-2-yl)phenyl]ethoxy}-5-{2-[(methylsulfonyl)methyl]-1,3-thiazol-5-yl}pyridin-2-amine], the IC50 in test [1] was 9.15 nM. Further, the Ki in test [2] was 0.58 nM.

As for `C[C@@H](Oc1cc(-c2ccc3c(c2)S(=O)(=O)CC3O)cnc1N)c1cc(F)ccc1-n1nccn1` (stereo partly drawn) [Example 110, 6-(6-amino-5-{(1R)-1-[5-fluoro-2-(2H-1,2,3-triazol-2-yl)pheny]ethoxy}pyridin-3-yl)-2,3-dihydro-1-benzothiophene-3-ol 1,1-dioxide], the IC50 in test [1] was 34.4 nM. Also, the Ki in test [2] was determined as 0.47 nM.

Compound `C[C@@H](Oc1cc(-c2ccc(C(C)(C)O)c(S(C)(=O)=O)c2)cnc1N)c1cc(F)ccc1-n1nccn1` [Example 111, 2-[4-(6-amino-5-{(1R)-1-[5-fluoro-2-(2H-1,2,3-triazol-2-yl)phenyl]ethoxy}pyridin-3-yl)-2-(methylsulfonyl)phenyl]propan-2-ol] showed a half-maximal inhibitory concentration (IC50) in test [1] of 0.622 nM. In addition, in test [2], the Ki was less than 0.2 nM.

As for `C[C@@H](Oc1cc(-c2cccc(P(C)(C)=O)c2)cnc1N)c1cc(F)ccc1-n1nccn1` [Example 112, 5-[3-(dimethylphosphoryl)phenyl]-3-{(1R)-1-[5-fluoro-2-(2H-1,2,3-triazol-2-yl)phenyl]ethoxy}pyridin-2-amine], in test [1], the IC50 was found to be 38.1 nM. The inhibition constant Ki in test [2] turned out to be 0.203 nM.

In the case of `C[C@@H](Oc1cc(-c2cccc(S(N)(=O)=O)c2)cnc1N)c1cc(F)ccc1-n1nccn1` [Example 113, 3-(6-amino-5-{(1R)-1-[5-fluoro-2-(2H-1,2,3-triazol-2-yl)phenyl]ethoxy}pyridin-3-yl)benzenesulfonamide], the IC50 in test [1] worked out at 10.1 nM. The Ki in test [2] amounted to 0.26 nM.

In test [1], `Cc1cc(-c2cnc(N)c(O[C@H](C)c3cc(F)ccc3-n3nccn3)c2)cc(P(C)(C)=O)c1` [Example 114, 5-[3-(dimethylphosphoryl)-5-methylphenyl]-3-{(1R)-1-[5-fluoro-2-(2H-1,2,3-triazol-2-yl)phenyl]ethoxy}pyridin-2-amine] yielded an IC50 of 89.6 nM. Besides, in test [2], the inhibition constant (Ki) came out at 1.3 nM.

Consider `Cc1nc(-c2cnc(N)c(O[C@H](C)c3cc(F)ccc3-n3nccn3)c2)sc1C(C)O` (stereo partly drawn) [Example 115, 1-[2-(6-amino-5-{(1R)-1-[5-fluoro-2-(2H-1,2,3-triazol-2-yl)phenyl]ethoxy}pyridin-3-yl)-4-methyl-1,3-thiazol-5-yl]ethanol], for which, in test [1], half-maximal inhibition (IC50) was put at 289 nM. The Ki in test [2] is 4.37 nM.

In test [1], `C[C@@H](Oc1cc(-c2c[nH]nc2C#N)cnc1N)c1cc(F)ccc1-n1nccn1` [Example 116, 4-(6-amino-5-{(1R)-1-[5-fluoro-2-(2H-1,2,3-triazol-2-yl)phenyl]ethoxy}pyridin-3-yl)-1H-pyrazole-3-carbonitrile] came in with an IC50 of 4.17 nM. Further, the Ki in test [2] is less than 0.2 nM.

With `Cc1ccc(-c2cnc(N)c(O[C@H](C)c3cc(F)ccc3-n3nccn3)c2)cn1` [Example 117, 5-{(1R)-1-[5-fluoro-2-(2H-1,2,3-triazol-2-yl)phenyl]ethoxy}-6′-methyl-3,3′-bipyridin-6-amine], the IC50 in test [1] was 10.3 nM. In test [2], the Ki turned out to be 0.77 nM.

Compound `COc1cc(C(N)=O)ccc1-c1cnc(N)c(O[C@H](C)c2cc(F)ccc2-n2nccn2)c1` [Example 118, 4-(6-amino-5-{(1R)-1-[5-fluoro-2-(2H-1,2,3-triazol-2-yl)phenyl]ethoxy}pyridin-3-yl)-3-methoxybenzamide] displayed an IC50 in test [1] of 9.29 nM. Also, the inhibition constant (Ki) in test [2] is 0.26 nM.

For `C[C@@H](Oc1cc(-c2ccc(CO)c(S(C)(=O)=O)c2)cnc1N)c1cc(F)ccc1-n1nccn1` [Example 119, [4-(6-amino-5-{(1R)-1-[5-fluoro-2-(2H-1,2,3-triazol-2-yl)phenyl]ethoxy}pyridin-3-yl)-2-(methylsulfonyl)phenyl]methanol], the 50% inhibitory concentration (IC50) in test [1] was 4.39 nM. Besides, the Ki in test [2] was less than 0.2 nM.

For `Cc1nc(C#N)c(-c2cnc(N)c(O[C@H](C)c3cc(F)ccc3-n3nccn3)c2)o1` [Example 120, 5-(6-amino-5-{(1R)-1-[5-fluoro-2-(2H-1,2,3-triazol-2-yl)phenyl]ethoxy}pyridin-3-yl)-2-methyl-1,3-oxazole-4-carbonitrile], in test [1], the IC50 was found to be 161 nM. Besides, in test [2], the inhibitory constant (Ki) was determined as 2.14 nM.

Consider `C[C@@H](Oc1cc(-c2ccc(O)nc2)cnc1N)c1cc(F)ccc1-n1nccn1` [Example 121, 6′-amino-5′-{(1R)-1-[5-fluoro-2-(2H-1,2,3-triazol-2-yl)phenyl]ethoxy}-3,3′-bipyridin-6-ol], for which it took 71.3 nM to reach half-maximal inhibition in test [1] (IC50). In addition, the Ki in test [2] is 1.04 nM.
